This passage reports DC50 and Dmax results from patent US11986532B2 (Arvinas Operations, Inc., priority 2021, dated 2024).

A word on the DC50: it is the concentration giving 50% degradation. In general, Dmax refers to the largest share of the target that was removed.

Like-named read-outs stand apart in the source and are kept apart here.

The assay has as its target T1, BCL6 (Homo sapiens, UniProt P41182).
T1 construct: endogenous in cells; host or cells: T47D breast cancer epithelial cells
The experiment in a line: Immunofluorescence protocol for high content imaging of BCL6 (degradation) in T47D cells, 3 days compound treatment. In kind it is cell-based. To be noted: for DC50: read-out: Mean DC50 (nM)* category; for Dmax: read-out: Mean Dmax (%)** category. A digest of the protocol:
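High content immunofluorescence imaging (10×, 4 fields/well) of BCL6 using rabbit primary antibody, Alexa-488 secondary, cell mask and Hoechst nuclear stain after PFA fixation. Before staining, T47D cells (7K/well) were exposed for 3 days at 37° C to 3-fold serial dilutions of compound, top final concentration 0.1 or 1 μM.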

The mark [1] stands for this setting: T47D cells, 3 days compound treatment.

Regarding `CNC(=O)COc1cc2cc(Nc3nc(N4CCC(CN5CC6(CCN(c7cc8c(c(OC)c7)C(=O)N(C7CCC(=O)NC7=O)C8)CC6)C5)CC4)ncc3Cl)ccc2n(C(C)C)c1=O` (stereo not drawn) [Compound 115, 2-{[6-({5-chloro-2-[4-({7-[2-(2,6-dioxopiperidin-3-yl)-7-methoxy-1-oxo-2,3-dihydro-1H-isoindol-5-yl]-2,7-diazaspiro[3.5]nonan-2-yl}methyl)piperidin-1-yl]pyrimidin-4-yl}amino)-2-oxo-1-(propan-2-yl)-1,2-dihydroquinolin-3-yl]oxy}-N-methylacetamide], under setting [1], the DC50 was below 10 nM and the Dmax was 50 to 70%.

On to `CCNC(=O)COc1cc2cc(Nc3nc(N4CCC(CN5CCC6(CC5)CN(c5ccc7c(c5)C(=O)N(C5CCC(=O)NC5=O)C7=O)C6)CC4)ncc3Cl)ccc2n(C(C)C)c1=O` (stereo not drawn) [Compound 56, 2-{[6-({5-chloro-2-[4-({2-[2-(2,6-dioxopiperidin-3-yl)-1,3-dioxo-2,3-dihydro-1H-isoindol-5-yl]-2,7-diazaspiro[3.5]nonan-7-yl}methyl)piperidin-1-yl]pyrimidin-4-yl}amino)-2-oxo-1-(propan-2-yl)-1,2-dihydroquinolin-3-yl]oxy}-N-ethylacetamide], for which, under setting [1], the DC50 is at least 100 nM and the Dmax was at least 70%.

Take `CNC(=O)COc1cc2cc(Nc3nc(N4CCC(OC5CN([C@H]6CC[C@H](c7ccc8c(c7)C(=O)N(C7CCC(=O)NC7=O)C8=O)CC6)C5)CC4)ncc3Cl)ccc2n(C(C)C)c1=O` (stereo partly drawn) [Compound 341, 2-{[6-({5-chloro-2-[4-({1-[(1r,4r)-4-[2-(2,6-dioxopiperidin-3-yl)-1,3-dioxo-2,3-dihydro-1H-isoindol-5-yl]cyclohexyl]azetidin-3-yl}oxy)piperidin-1-yl]pyrimidin-4-yl}amino)-2-oxo-1-(propan-2-yl)-1,2-dihydroquinolin-3-yl]oxy}-N-methylacetamide]: the 50% degradation concentration (DC50) was in the range of 10 to 50 nM. Further, the Dmax (T47D) lay within 50 to 70%.

In the case of `CNC(=O)COc1cc2cc(Nc3nc(N4CCC(CN5CCC6(CN(c7cc8c(cc7F)C(=O)N(C7CCC(=O)NC7=O)C8)C6)C(F)(F)C5)CC4)ncc3Cl)ccc2n(C(C)C)c1=O` (stereo not drawn) [Compound 100, 2-{[6-({5-chloro-2-[4-({2-[2-(2,6-dioxopiperidin-3-yl)-6-fluoro-1-oxo-2,3-dihydro-1H-isoindol-5-yl]-5,5-difluoro-2,7-diazaspiro[3.5]nonan-7-yl}methyl)piperidin-1-yl]pyrimidin-4-yl}amino)-2-oxo-1-(propan-2-yl)-1,2-dihydroquinolin-3-yl]oxy}-N-methylacetamide], under setting [1], the DC50 is below 10 nM and the Dmax fell in the range of 50 to 70%.

For the molecule `CNC(=O)COc1cc2cc(Nc3nc(N4CCC(O[C@H]5C[C@H](N6CCN(c7ccc8c(c7)CN(C7CCC(=O)NC7=O)C8=O)C(C)(C)C6)C5)CC4)ncc3Cl)ccc2n(C(C)C)c1=O` (stereo partly drawn) [Compound 170, 2-({6-[(5-chloro-2-{4-[(1r,3r)-3-{4-[2-(2,6-dioxopiperidin-3-yl)-1-oxo-2,3-dihydro-1H-isoindol-5-yl]-3,3-dimethylpiperazin-1-yl}cyclobutoxy]piperidin-1-yl}pyrimidin-4-yl)amino]-2-oxo-1-(propan-2-yl)-1,2-dihydroquinolin-3-yl}oxy)-N-methylacetamide], under setting [1], the half-maximal degradation concentration (DC50) was below 10 nM and the greatest degradation seen (Dmax) was at least 70%.

With `CNC(=O)COc1cc2cc(Nc3nc(N4CCC(OC5CCC6(CCN(c7ccc8c(c7)CN(C7CCC(=O)NC7=O)C8=O)C6)C5)CC4)ncc3Cl)ccc2n(C(C)C)c1=O` (stereo not drawn) [Compound 98, 2-{[6-({5-chloro-2-[4-({2-[2-(2,6-dioxopiperidin-3-yl)-1-oxo-2,3-dihydro-1H-isoindol-5-yl]-2-azaspiro[4.4]nonan-7-yl}oxy)piperidin-1-yl]pyrimidin-4-yl}amino)-2-oxo-1-(propan-2-yl)-1,2-dihydroquinolin-3-yl]oxy}-N-methylacetamide], under setting [1], the half-maximal degradation concentration (DC50) was below 10 nM and the Dmax was below 50%.
